Laboratory results taken from patent US12319652B2, “Salts and solid forms of (R)-1-(5-methoxy-1H-indol-1-yl)-N,N-dimethylpropan-2-amine” (priority 2021, dated 2025).

Tests used:
[1] = Heat-up/cool down (HUCD) crystallization of compound 1 Fumarate in different solvents
Excerpt: Crystallisation from different solvents can be a useful method to investigate alternative polymorphic forms. This crystallisation screen of compound 1·Fumarate could also be used to identify potential conditions for future scale-up crystallisations to control the form outcome. Amorphous compound 1 fumarate (batch 1) was crystallised from several solvents (refer to Table 64). Only entries N1 AND N2 remained in solution when cooled down. The XRPD diffractograms of the rest, which delivered solids, matched monofumarate Form A when oven dried (FIG. 103).
Separate portions of compound 1 Fumarate (75 mg, 1.0 wt.) were charged to separate vessels. The appropriate solvents (750 μl) were charged to the relevant vessels and subsequent charges of the appropriate co-solvent were made to accomplish dissolution. The solutions were cooled to 18 to 23° C. and allowed to stand undisturbed, until crystallization was judged complete. After this time the products were isolated by centrifugation, washed with recycled maturation solvent, dried under reduced pressure at 40° C. and analyzed by XRPD for evidence of alternative crystalline forms (FIG. 103).

[2] = Suspension equilibration of compound 1 fumarate at 20 and 40° C.; settings: 10 vol total
Description: Amorphous compound 1 fumarate was subjected to this technique at ambient temperature (20° C.) and at elevated temperature (40° C.), in a diverse range of solvents.
Amorphous compound 1 fumarate underwent suspension equilibration in 19 single solvents at two different temperature set points (20 and 40° C.). The products were isolated by centrifugation and analysed wet by XRPD. After drying, the samples were reanalyzed.
At 20° C., dissolution or gumming was initially observed in the presence of most solvents; after several days, five of the gums had mobilised to give stable suspensions (refer to entries, Table 61). The products were isolated via centrifugation and the wet pellets were analysed by XRPD, oven dried and reanalysed by XRPD, TGA, DSC and ^1H NMR.
The companion screen performed at 40° C., yielded no hits. Consequently, the screen was repeated in the presence of an appropriate polarity modifier (either heptane or tBME), to ensure activity of the solvent was maintained while generating stable suspensions from the onset (refer to Table 62).
Separate portions of compound 1 (ca 50 mg, 1.0 wt.) were charged to separate vessels. The appropriate solvents (e.g. 250 μl, 5.0 vol), as described in Table and Table were charged to the vessels and the mixtures were stirred for several days at their relevant temperatures e.g. 20 to 40° C. After this time the products were cooled, isolated by centrifugation, analyzed as wet pellet by XRPD and dried under reduced pressure at 40° C. and re-analyzed by XRPD and companion analyses for evidence of alternative crystalline forms (FIGS. 74-77).

[3] = Heptane (5 vol) + 2-Methyl THF 380 μl
[4] = Heptane (5 vol) + 2-Propanol 120 μl
[5] = Heptane (5 vol) + Acetone 200 μl
[6] = Heptane (5 vol) + Butanol 100 μl
[7] = Heptane (5 vol) + Dichloromethane 160 μl
[8] = Heptane (5 vol) + Diethyl ether 800 μl
[9] = Heptane (5 vol) + Dioxane 240 μl
[10] = Heptane (5 vol) + Ehtyl acetate 420 μl
[11] = Heptane (5 vol) + Ethanol 180 μl
[12] = Heptane (5 vol) + Isopropyl acetate 660 μl
[13] = Heptane (5 vol) + Methylethyl ketone 100 μl
[14] = Heptane (5 vol) + Tetrahydrofuran 300 μl
[15] = no precipitant solvent (—), Toluene 800 μl
[16] = Heptane (7 parts)/2-Methyl THF (3 part)
[17] = Heptane (7 parts)/2-Propanol (3 part)
[18] = Heptane (7 parts)/Acetone (3 part)
[19] = Heptane (7 parts)/Acetonitrile (3 part)
[20] = Heptane (7 parts)/Chlorobenzene (3 part)
[21] = Heptane (7 parts)/Dichloromethane (3 part)
[22] = Heptane (7 parts)/Ethanol (3 part)
[23] = Heptane (7 parts)/Ethyl acetate (3 part)
[24] = Heptane (7 parts)/Ethyl formate (3 part)
[25] = Heptane (7 parts)/Heptane (3 part)
[26] = Heptane (7 parts)/Isopropyl acetate (3 part)
[27] = Heptane (7 parts)/Methanol (3 part)
[28] = Heptane (7 parts)/Methyl acetate (3 part)
[29] = Heptane (7 parts)/Methylethyl ketone (3 part)
[30] = Heptane (7 parts)/Nitromethane (3 part)
[31] = Heptane (7 parts)/Tetrahydrofuran (3 part)
[32] = Heptane (7 parts)/Toluene (3 part)
[33] = Heptane (7 parts)/Water (3 part)
[34] = Heptane (7 parts)/tert-Butylmethyl ether (3 part)

For `COc1ccc2c(ccn2C[C@@H](C)[NH+](C)C)c1.O=C(O)/C=C/C(=O)O` [Compound 1 fumarate, (R)-1-(5-methoxy-1H-indol-1-yl)-N,N-dimethylpropan-2-amine fumarate], the “Form XRPD (oven dried)” value [1, 3] was “Pattern 1”, the “Observations (t = 0 @ T = 20° C.)” value [1, 3] was “suspension” and the “Observations (t = 3 d @ 20° C.)” value [1, 3] was “suspension”. The “Form XRPD (oven dried)” value [1, 4] was “Pattern 1”, the “Observations (t = 0 @ T = 20° C.)” value [1, 4] was “suspension” and the “Observations (t = 3 d @ 20° C.)” value [1, 4] was “suspension”. For the same compound, the “Form XRPD (oven dried)” value [1, 5] was “Pattern 1”, the “Observations (t = 0 @ T = 20° C.)” value [1, 5] was “suspension” and the “Observations (t = 3 d @ 20° C.)” value [1, 5] was “suspension”. For the same compound, the “Form XRPD (oven dried)” value [1, 6] was “Pattern 1”, the “Observations (t = 0 @ T = 20° C.)” value [1, 6] was “suspension” and the “Observations (t = 3 d @ 20° C.)” value [1, 6] was “suspension”. For the same compound, the “Form XRPD (oven dried)” value ([1]; Heptane (5 vol) + CPME 800 μl) was “Pattern 1”, the “Observations (t = 0 @ T = 20° C.)” value ([1]; Heptane (5 vol) + CPME 800 μl) was “gum” and the “Observations (t = 3 d @ 20° C.)” value ([1]; Heptane (5 vol) + CPME 800 μl) was “gum”. For the same compound, the “Observations (t = 0 @ T = 20° C.)” value [1, 7] was “suspension”, the “Observations (t = 3 d @ 20° C.)” value [1, 7] was “suspension” and the “Form XRPD (oven dried)” value [1, 8] was “Pattern 1”. The “Observations (t = 0 @ T = 20° C.)” value [1, 8] was “gum”, the “Observations (t = 3 d @ 20° C.)” value [1, 8] was “gum” and the “Observations (t = 0 @ T = 20° C.)” value [1, 9] was “suspension”. The “Observations (t = 3 d @ 20° C.)” value [1, 9] was “suspension”, the “Form XRPD (oven dried)” value [1, 10] was “Pattern 1” and the “Observations (t = 0 @ T = 20° C.)” value [1, 10] was “suspension”. For the same compound, the “Observations (t = 3 d @ 20° C.)” value [1, 10] was “suspension”, the “Form XRPD (oven dried)” value [1, 11] was “Pattern 1” and the “Observations (t = 0 @ T = 20° C.)” value [1, 11] was “suspension”. The “Form XRPD (oven dried)” value [1, 12] was “Pattern 1”, the “Observations (t = 0 @ T = 20° C.)” value [1, 12] was “suspension” and the “Observations (t = 3 d @ 20° C.)” value [1, 12] was “suspension”. The “Form XRPD (oven dried)” value ([1]; Heptane (5 vol) + MIBK 420 μl) was “Pattern 1”, the “Observations (t = 0 @ T = 20° C.)” value ([1]; Heptane (5 vol) + MIBK 420 μl) was “suspension” and the “Observations (t = 3 d @ 20° C.)” value ([1]; Heptane (5 vol) + MIBK 420 μl) was “suspension”. For the same compound, the “Form XRPD (oven dried)” value [1, 13] was “Pattern 1”, the “Observations (t = 3 d @ 20° C.)” value [1, 13] was “suspension” and the “Form XRPD (oven dried)” value [1, 14] was “Pattern 1”. For the same compound, the “Observations (t = 0 @ T = 20° C.)” value [1, 14] was “suspension”, the “Observations (t = 3 d @ 20° C.)” value [1, 14] was “suspension” and the “Observations (t = 0 @ T = 20° C.)” value ([1]; Water (5 vol) + Ethanol 80 μl) was “solution”. For the same compound, the “Form XRPD (oven dried)” value [1, 15] was “Pattern 1”, the “Observations (t = 0 @ T = 20° C.)” value [1, 15] was “gum” and the “Observations (t = 3 d @ 20° C.)” value [1, 15] was “gum”. The “Observations (t = 0 @ 40° C.)” value [2, 16] was “Gum”, the “XRPD (post oven dried)” value [2, 16] was “Pattern #1” and the “XRPD (wet)” value [2, 16] was “Pattern #1”. The “Observations (t = 3 d) @ 40° C.)” value [2, 17] was “Suspension”, the “XRPD (post oven dried)” value [2, 17] was “Pattern #1” and the “XRPD (wet)” value [2, 17] was “Pattern #1”. The “Observations (t = 0 @ 40° C.)” value [2, 18] was “Gum”, the “Observations (t = 1 d) @ 40° C.)” value [2, 18] was “Gum” and the “Observations (t = 3 d) @ 40° C.)” value [2, 18] was “Gum/oil”. The “Observations (t = 7 d @ 40° C.)” value [2, 18] was “Gum”, the “XRPD (post oven dried)” value [2, 18] was “Pattern #1” and the “XRPD (wet)” value [2, 18] was “Pattern #1”. For the same compound, the “Observations (t = 0 @ 40° C.)” value [2, 19] was “Oil (biphasic)”, the “Observations (t = 1 d) @ 40° C.)” value [2, 19] was “Oil (biphasic)” and the “Observations (t = 3 d) @ 40° C.)” value [2, 19] was “Oil (biphasic)”. The “Observations (t = 7 d @ 40° C.)” value [2, 19] was “Oil (biphasic)”, the “Observations (t = 0 @ 40° C.)” value [2, 20] was “Gum” and the “Observations (t = 1 d) @ 40° C.)” value [2, 20] was “Gum”. The “XRPD (post oven dried)” value [2, 20] was “Pattern #1”, the “XRPD (wet)” value [2, 20] was “Pattern #1” and the “XRPD (post oven dried)” value [2, 21] was “Pattern #1”. For the same compound, the “XRPD (wet)” value [2, 21] was “Pattern #1”, the “Observations (t = 3 d) @ 40° C.)” value [2, 22] was “Suspension” and the “XRPD (post oven dried)” value [2, 22] was “Pattern #1”. For the same compound, the “XRPD (wet)” value [2, 22] was “Pattern #1”, the “Observations (t = 0 @ 40° C.)” value [2, 23] was “Gum” and the “Observations (t = 1 d) @ 40° C.)” value [2, 23] was “Gum”. For the same compound, the “Observations (t = 3 d) @ 40° C.)” value [2, 23] was “Gum”, the “Observations (t = 7 d @ 40° C.)” value [2, 23] was “Oil/gum” and the “Observations (t = 3 d) @ 40° C.)” value [2, 24] was “Gum”. For the same compound, the “XRPD (post oven dried)” value [2, 24] was “Pattern #1”, the “XRPD (wet)” value [2, 24] was “Pattern #1” and the “Observations (t = 0 @ 40° C.)” value [2, 25] was “Gum”. For the same compound, the “Observations (t = 1 d) @ 40° C.)” value [2, 25] was “Gum”, the “XRPD (post oven dried)” value [2, 25] was “Pattern #1” and the “XRPD (wet)” value [2, 25] was “Pattern #1”. For the same compound, the “Observations (t = 0 @ 40° C.)” value [2, 26] was “Gum”, the “XRPD (post oven dried)” value [2, 26] was “Pattern #1” and the “XRPD (wet)” value [2, 26] was “Pattern #1”. The “Observations (t = 0 @ 40° C.)” value [2, 27] was “Oil (biphasic)”, the “Observations (t = 1 d) @ 40° C.)” value [2, 27] was “Oil (biphasic)” and the “Observations (t = 3 d) @ 40° C.)” value [2, 27] was “Biphasic (oil)”. The “Observations (t = 7 d @ 40° C.)” value [2, 27] was “Oil (biphasic)”, the “XRPD (post oven dried)” value [2, 27] was “Pattern #1” and the “XRPD (wet)” value [2, 27] was “Pattern #1”. For the same compound, the “XRPD (post oven dried)” value [2, 28] was “Pattern #1”, the “XRPD (wet)” value [2, 28] was “Pattern #1” and the “Observations (t = 0 @ 40° C.)” value [2, 29] was “Gum”. For the same compound, the “XRPD (post oven dried)” value [2, 29] was “Pattern #1”, the “XRPD (wet)” value [2, 29] was “Pattern #1” and the “Observations (t = 0 @ 40° C.)” value [2, 30] was “Oil (biphasic)”. For the same compound, the “Observations (t = 1 d) @ 40° C.)” value [2, 30] was “Oil (biphasic)”, the “Observations (t = 3 d) @ 40° C.)” value [2, 30] was “Oil (biphasic)” and the “Observations (t = 0 @ 40° C.)” value [2, 31] was “Gum”. For the same compound, the “XRPD (post oven dried)” value [2, 31] was “Pattern #1”, the “XRPD (wet)” value [2, 31] was “Pattern #1” and the “Observations (t = 0 @ 40° C.)” value [2, 32] was “Gum”. For the same compound, the “Observations (t = 1 d) @ 40° C.)” value [2, 32] was “Gum”, the “XRPD (post oven dried)” value [2, 32] was “Pattern #1” and the “XRPD (wet)” value [2, 32] was “Pattern #1”. The “Observations (t = 0 @ 40° C.)” value [2, 33] was “Oil (biphasic)”, the “Observations (t = 1 d) @ 40° C.)” value [2, 33] was “Oil (biphasic)” and the “Observations (t = 3 d) @ 40° C.)” value [2, 33] was “Oil (biphasic)”. The “Observations (t = 7 d @ 40° C.)” value [2, 33] was “Oil (biphasic)”, the “Observations (t = 0 @ 40° C.)” value [2, 34] was “Gum” and the “Observations (t = 1 d) @ 40° C.)” value [2, 34] was “Gum”. The “Observations (t = 3 d) @ 40° C.)” value [2, 34] was “Gum” and the “Observations (t = 7 d @ 40° C.)” value [2, 34] was “Oil/gum”.
